Assay results: article PMC8433531 (Proceedings of the National Academy of Sciences of the …, 2021)

Experiments:
SARS-CoV-2 [1] = type: cell-based; conditions: for antiviral activity against SARS-CoV-2 in iAECs: iAEC2
SARS-CoV-2 [2] = assay: Hit validation across cell systems; type: cell-based; conditions: Huh7, LNCaP, Caco-2, Vero E6, iAEC2
SARS-CoV-2 [3] = type: cell-based
SARS-CoV-2 [4] = conditions: cited from earlier work
SARS-CoV-2 [5] = assay: Viral binding assay on Huh7 cells; type: cell-based; conditions: lactoferrin 1,250 and 6,250 nM, remdesivir 10 nM, NaClO3 7 d
SARS-CoV-2 [6] = assay: microbe, parasite or virus in culture; type: cell-based; conditions: Severe acute respiratory syndrome coronavirus 2, Huh-7, 48 h
SARS-CoV-2 [7] = assay: SARS-CoV-2 infection of Caco-2 cells with MEK inhibitors; type: cell-based; conditions: Caco-2, 10 µM
SARS-CoV-2 [8] = type: cell-based; conditions: Huh7, MOI of 1, 1,000 nM, 24 and 48 h p.i., versus untreated

In the case of `Cc1cc(OCCN2CCOCC2)nn1-c1ccc2ccccc2c1` [S1RA], the “antiviral activity at high MOI” value (SARS-CoV-2 [1]) is reported as “retained antiviral activity” and the “antiviral activity against SARS-CoV-2 in iAECs” value (shortened to “antiviral activity … in iAECs”) (SARS-CoV-2 [1]) is reported as “dose-responsive antiviral activity”.
With `CC(NC(=O)[C@H](Cc1ccccc1)NC(=O)OCc1ccccc1)C(=O)CF` (some centres unmarked) [Z-FA-FMK] the “efficacy across all tested cell systems” value (SARS-CoV-2 [2]) was “maintained efficacy across all tested cell systems”.
In the case of `O=C(NC1CCN(CCCCC2(C(=O)NCC(F)(F)F)c3ccccc3-c3ccccc32)CC1)c1ccccc1-c1ccc(C(F)(F)F)cc1` [Lomitapide], the “efficacy across all tested cell systems” value (SARS-CoV-2 [2]) is reported as “maintained efficacy across all tested cell systems” and the “antiviral activity … in iAECs” value (SARS-CoV-2 [1]) is reported as “dose-responsive antiviral activity”.
For `CCN(CC)CCCC(C)Nc1ccnc2cc(Cl)ccc12` (centres unmarked) [chloroquine], the “concentrations at which efficacious” value (SARS-CoV-2 [3]; Huh7, dose-response confirmation) was “above 1 µM”.
For `CC(C)/N=c1\cc2n(-c3ccc(Cl)cc3)c3ccccc3nc-2cc1Nc1ccc(Cl)cc1` [CLOFAZIMINE], the “antiviral activity … in iAECs” value (SARS-CoV-2 [1]) is given as “dose-responsive antiviral activity” and the “viral infection in a hamster model of disease” value (SARS-CoV-2 [4]) is given as “block viral infection”.
With `CC(C)[N+]1(C)[C@@H]2CC[C@H]1C[C@@H](OC(=O)C(CO)c1ccccc1)C2` (some centres unmarked) [Ipratropium Bromide] the “efficacy across all tested cell systems” value (SARS-CoV-2 [2]) was “maintained efficacy across all tested cell systems” and the “antiviral activity … in iAECs” value (SARS-CoV-2 [1]) was “dose-responsive antiviral activity”.
With `[Na+].[O-][Cl+2]([O-])[O-]` [NaClO3] the “SARS-CoV-2 attachment to Huh7 cells” value (SARS-CoV-2 [5]) was “reduced”.
For `CCC(CC)COC(=O)[C@H](C)N[P@](=O)(OC[C@H]1O[C@@](C#N)(c2ccc3c(N)ncnn23)[C@H](O)[C@@H]1O)Oc1ccccc1` [Remdesivir], the “efficacy across all tested cell systems” value (SARS-CoV-2 [2]) was “maintained efficacy across all tested cell systems”, the “antiviral activity at high MOI” value (SARS-CoV-2 [1]) was “retained antiviral activity” and the “antiviral activity … in iAECs” value (SARS-CoV-2 [1]) was “dose-responsive antiviral activity”. For the same molecule, the IC50 (SARS-CoV-2 [6]) was 6.7 nM.
With `CC(=O)Nc1cccc(-n2c(=O)n(C3CC3)c(=O)c3c(Nc4ccc(I)cc4F)n(C)c(=O)c(C)c32)c1` [trametinib] the exacerbation of infection (SARS-CoV-2 [7]) was “exacerbation effect was observed” and the “increase of viral infection” value (SARS-CoV-2 [3]) was “greater than twofold increase”.
With `CCc1nc(C(N)=O)c(Nc2ccc(N3CCC(N4CCN(C)CC4)CC3)c(OC)c2)nc1NC1CCOCC1` [Gilteritinib] the “antiviral activity … in iAECs” value (SARS-CoV-2 [1]) was “dose-responsive antiviral activity”.
In the case of “transferrin: transferrin (Sigma-Aldrich; T2036), control to rule out iron chelation”, the “antiviral activity (iron chelation control)” value (SARS-CoV-2 [3]; Huh7, 6,250 nM) is reported as “inactive”.
In the case of `O=C(c1ccc(F)c(F)c1Nc1ccc(I)cc1F)N1CC(O)([C@@H]2CCCCN2)C1` [cobimetinib], the “percentage of viral RNA-positive cells” value (SARS-CoV-2 [8]) is reported as “increased at 48 h p.i., but not at 24 h p.i” and the “increase of viral infection” value (SARS-CoV-2 [3]) is reported as “greater than twofold increase”.
With `Cn1cnc2c(F)c(Nc3ccc(Br)cc3F)c(C(=O)NOCCO)cc21` [binimetinib] the exacerbation of infection (SARS-CoV-2 [7]) was “exacerbation effect was observed” and the “increase of viral infection” value (SARS-CoV-2 [3]) was “greater than twofold increase”.
